Test results as given in ChEMBL document CHEMBL2034968, “Discovery of novel urea-based hepatitis C protease inhibitors with high potency against protease-inhibitor-resistant mutants” (J Med Chem, 2012).

What was measured:
[1] = Inhibition of HCV 1a protease 1a domain; design: species or system Hepacivirus hominis
[2] = test system: Hepatitis C virus; assay: Antiviral activity against Hepatitis C virus subtype 1b harboring protease A156S mutant by transient replicon assay; type: functional, organism-based, Hepacivirus hominis; settings: genotype 1b
[3] = test system: Hepatitis C virus; assay: Antiviral activity against wild type Hepatitis C virus subtype 1b by transient replicon assay; type: functional, organism-based, Hepacivirus hominis; settings: genotype 1b
[4] = test system: Hepatitis C virus; assay: Antiviral activity against Hepatitis C virus subtype 1b harboring protease D168V mutant by transient replicon assay; type: functional, organism-based, Hepacivirus hominis; settings: genotype 1b
[5] = test system: Hepatitis C virus; assay: Antiviral activity against Hepatitis C virus subtype 1b harboring protease D168A mutant by transient replicon assay; type: functional, organism-based, Hepacivirus hominis; settings: genotype 1b
[6] = test system: Hepatitis C virus; assay: Antiviral activity against Hepatitis C virus subtype 1b harboring protease A156V mutant by transient replicon assay; type: functional, organism-based, Hepacivirus hominis; settings: genotype 1b
[7] = test system: Hepatitis C virus; assay: Antiviral activity against Hepatitis C virus subtype 1b by stable replicon assay; type: functional, organism-based, Hepacivirus hominis; settings: genotype 1b
[8] = test system: Hepatitis C virus; assay: Antiviral activity against Hepatitis C virus subtype 1b harboring protease R155K mutant by transient replicon assay; type: functional, organism-based, Hepacivirus hominis; settings: genotype 1b
[9] = test system: Hepatitis C virus; assay: Antiviral activity against Hepatitis C virus subtype 1a by stable replicon assay; type: functional, organism-based, Hepacivirus hominis
[10] = test system: Hepatitis C virus; assay: Antiviral activity against Hepatitis C virus subtype 1b harboring protease A156T mutant by transient replicon assay; type: functional, organism-based, Hepacivirus hominis; settings: genotype 1b
[11] = test system: Hepatitis C virus; assay: Resistance index, ratio of EC50 for Hepatitis C virus subtype 1b harboring protease D168A mutant to EC50 for wild type Hepatitis C virus subtype 1b; type: functional, Hepacivirus hominis, genotype 1b
[12] = test system: Hepatitis C virus; assay: Resistance index, ratio of EC50 for Hepatitis C virus subtype 1b harboring protease D168V mutant to EC50 for wild type Hepatitis C virus subtype 1b; type: functional, Hepacivirus hominis, genotype 1b
[13] = test system: Hepatitis C virus; assay: Resistance index, ratio of EC50 for Hepatitis C virus subtype 1b harboring protease R155K mutant to EC50 for wild type Hepatitis C virus subtype 1b; type: functional, Hepacivirus hominis, genotype 1b

Structure (SMILES) | IC50 [1] [nM] | EC50 [2] [nM] | EC50 [3] [nM] | EC50 [4] [nM] | EC50 [5] [nM] | EC50 [6] [nM] | EC50 [7] [nM] | EC50 [8] [nM] | EC50 [9] [nM] | EC50 [10] [nM] | Ratio EC50 [11] | Ratio EC50 [12] | Ratio EC50 [13]
COc1ccc2c(O[C@@H]3C[C@H]4C(=O)N[C@]5(C(=O)NS(=O)(=O)C6CC6)C[C@H]5/C=C\CCCCC[C@H](NC(=O)N5CCS(=O)(=O)CC5)C(=O)N4C3)cc(-c3nc(C(C)C)cs3)nc2c1C | 2 | 0.3 | 0.4 | 1420 | 372 | 38 | 0.5 | 115 | 2.3 | 5 | – | – | –
COc1ccc2c(O[C@@H]3C[C@H]4C(=O)N[C@]5(C(=O)NS(=O)(=O)C6CC6)C[C@H]5/C=C\CCCCC[C@H](NC(N)=O)C(=O)N4C3)cc(-c3nc(C(C)C)cs3)nc2c1C | 2 | – | 0.4 | 2260 | 873 | 16 | 0.5 | 66 | 1.8 | 6 | – | – | –
COc1ccc2c(O[C@@H]3C[C@H]4C(=O)N[C@]5(C(=O)NS(=O)(=O)C6CC6)C[C@H]5/C=C\CCCCC[C@H](NC(=O)N5CCCC5)C(=O)N4C3)cc(-c3nc(C(C)C)cs3)nc2c1C | 4 | 0.2 | 0.1 | 200 | 86 | 9 | 0.4 | 15 | 0.4 | 2 | – | – | –
COc1ccc2c(O[C@@H]3C[C@H]4C(=O)N[C@]5(C(=O)NS(=O)(=O)C6CC6)C[C@H]5/C=C\CCCCC[C@H](NC(=O)N5CCC(CC(=O)O)CC5)C(=O)N4C3)cc(-c3nc(C(C)C)cs3)nc2c1C | 0.9 | 0.2 | 0.1 | 161 | 7 | 3 | 0.8 | 21 | 2.2 | 1 | – | – | –
COc1ccc2c(O[C@@H]3C[C@H]4C(=O)N[C@]5(C(=O)NS(=O)(=O)C6CC6)C[C@H]5/C=C\CCCCC[C@H](NC(=O)N(C)C(C)(C)C)C(=O)N4C3)cc(-c3nc(C4CC4)cs3)nc2c1C | – | 0.4 | 0.2 | 84 | 71 | 9 | 1 | 28 | 1 | 7 | <1000 | <1000 | <1000
COc1ccc2c(O[C@@H]3C[C@H]4C(=O)N[C@]5(C(=O)NS(=O)(=O)C6CC6)C[C@H]5/C=C\CCCCC[C@H](NC(=O)N5CCC(C)(C)C5)C(=O)N4C3)cc(-c3nc(C(C)C)cs3)nc2c1C | 2 | – | 0.1 | 138 | 28 | 11 | 0.5 | 17 | 0.6 | 2 | – | – | –
COc1ccc2c(O[C@@H]3C[C@H]4C(=O)N[C@]5(C(=O)NS(=O)(=O)C6CC6)C[C@H]5/C=C\CCCCC[C@H](NC(=O)N5CCC(CO)CC5)C(=O)N4C3)cc(-c3nc(C(C)C)cs3)nc2c1C | 1 | – | 0.1 | 141 | 47 | 9 | 0.3 | 14 | 0.7 | 2 | – | – | –
COc1ccc2c(O[C@@H]3C[C@H]4C(=O)N[C@]5(C(=O)NS(=O)(=O)C6CC6)C[C@H]5/C=C\CCCCC[C@H](NC(=O)N5C[C@@H](C)O[C@@H](C)C5)C(=O)N4C3)cc(-c3nc(C(C)C)cs3)nc2c1C | 2 | 1 | 0.7 | 2090 | 423 | 69 | 1.2 | 233 | 10.6 | 23 | – | – | –
COc1ccc2c(O[C@@H]3C[C@H]4C(=O)N[C@]5(C(=O)NS(=O)(=O)C6CC6)C[C@H]5/C=C\CCCCC[C@H](NC(=O)N5CC6CCCC6C5)C(=O)N4C3)cc(-c3nc(C(C)C)cs3)nc2c1C (stereo partly specified) | 5 | 0.1 | 0.01 | 83 | 23 | 15 | 0.3 | 11 | 0.3 | 1 | – | – | –
COc1ccc2c(O[C@@H]3C[C@H]4C(=O)N[C@]5(C(=O)NS(=O)(=O)C6CC6)C[C@H]5/C=C\CCCCC[C@H](NC(=O)N5CCC(c6ccccc6)CC5)C(=O)N4C3)cc(-c3nc(C(C)C)cs3)nc2c1C | 7 | – | 0.2 | 386 | 182 | 30 | 0.9 | 69 | 1.6 | 5 | – | – | –
COc1ccc2c(O[C@@H]3C[C@H]4C(=O)N[C@]5(C(=O)O)C[C@H]5/C=C\CCCCC[C@H](NC(=O)OC5CCCC5)C(=O)N4C3)cc(-c3csc(NC(C)C)n3)nc2c1 [CILUPREVIR] | 2 | 3 | 1 | 438 | 205 | 627 | 0.5 | 241 | 2.2 | 604 | – | – | –
CC[C@@H]1C[C@]1(NC(=O)[C@@H]1C[C@@H]2CN1C(=O)[C@H](C(C)(C)C)NC(=O)OCC(C)(C)CCCCc1cccc3c1CN(C3)C(=O)O2)C(=O)NS(=O)(=O)C1CC1 [VANIPREVIR] | – | – | 1.6 | – | – | – | – | – | – | – | – | – | –
COc1ccc2c(O[C@@H]3C[C@H]4C(=O)N[C@]5(C(=O)NS(=O)(=O)C6CC6)C[C@H]5/C=C\CCCCC[C@H](NC(=O)N5CCC(N6CCCC6)CC5)C(=O)N4C3)cc(-c3nc(C(C)C)cs3)nc2c1C | 2 | 1.9 | 0.5 | – | 1620 | 98 | 0.5 | 102 | 0.6 | 12 | – | – | –
CCN(CC)C(=O)N[C@H]1CCCCC/C=C\[C@@H]2C[C@@]2(C(=O)NS(=O)(=O)C2CC2)NC(=O)[C@@H]2C[C@@H](Oc3cc(-c4nc(C(C)C)cs4)nc4c(C)c(OC)ccc34)CN2C1=O | 1 | 0.5 | 0.1 | 131 | 56 | 8 | 0.7 | 15 | 0.9 | 2 | – | – | –
COc1ccc2c(O[C@@H]3C[C@H]4C(=O)N[C@]5(C(=O)NS(=O)(=O)C6CC6)C[C@H]5/C=C\CCCCC[C@H](NC(=O)N5CCC(CC(N)=O)CC5)C(=O)N4C3)cc(-c3nc(C(C)C)cs3)nc2c1C | 2 | 0.1 | 0.2 | – | 431 | 10 | 1.5 | 65 | 5.6 | 3 | – | – | –
COc1ccc2c(O[C@@H]3C[C@H]4C(=O)N[C@]5(C(=O)NS(=O)(=O)C6CC6)C[C@H]5/C=C\CCCCC[C@H](NC(=O)NCc5ccc(CO)c(O)c5)C(=O)N4C3)cc(-c3nc(C(C)C)cs3)nc2c1C | 0.5 | – | – | – | – | – | 1.1 | – | 15.5 | – | – | – | –
COc1ccc2c(O[C@@H]3C[C@H]4C(=O)N[C@]5(C(=O)NS(=O)(=O)C6CC6)C[C@H]5/C=C\CCCCC[C@H](NC(=O)N5CCC(O)CC5)C(=O)N4C3)cc(-c3nc(C(C)C)cs3)nc2c1C | 2 | – | 0.1 | 154 | 42 | 9 | 0.3 | 7 | 0.6 | 2 | – | – | –
CC(C)(C)NC(=O)N[C@H](C(=O)N1C[C@H]2[C@@H]([C@H]1C(=O)NC(CC1CCC1)C(=O)C(N)=O)C2(C)C)C(C)(C)C (stereo partly specified) [BOCEPREVIR] | – | – | 400 | 40 | – | – | – | 700 | – | 12000 | – | – | –
COc1ccc2c(O[C@@H]3C[C@H]4C(=O)N[C@]5(C(=O)NS(=O)(=O)C6CC6)C[C@H]5/C=C\CCCCC[C@H](NC(=O)N(C)C)C(=O)N4C3)cc(-c3nc(C(C)C)cs3)nc2c1C | 2 | – | 0.04 | 57 | 36 | 5 | 0.1 | 10 | 0.3 | 1 | – | – | –
COc1ccc2c(O[C@@H]3C[C@H]4C(=O)N[C@]5(C(=O)NS(=O)(=O)C6CC6)C[C@H]5/C=C\CCCCC[C@H](NC(=O)NCc5ccc6c(c5)B(O)OC6)C(=O)N4C3)cc(-c3nc(C(C)C)cs3)nc2c1C | 2 | 0.2 | 0.9 | 144 | 249 | 9 | 0.8 | 49 | 3.4 | 7 | – | – | –
COc1ccc2c(O[C@@H]3C[C@H]4C(=O)N[C@]5(C(=O)NS(=O)(=O)C6CC6)C[C@H]5/C=C\CCCCC[C@H](NC(=O)N5CCN(C6CCCC6)CC5)C(=O)N4C3)cc(-c3nc(C(C)C)cs3)nc2c1C | 2 | – | 0.1 | 477 | 169 | 32 | 0.3 | 60 | 0.5 | 5 | – | – | –
COc1ccc2c(O[C@@H]3C[C@H]4C(=O)N[C@]5(C(=O)NS(=O)(=O)C6CC6)C[C@H]5/C=C\CCCCC[C@H](NC(=O)N5CCOCC5)C(=O)N4C3)cc(-c3nc(C(C)C)cs3)nc2c1C | 2 | 0.03 | 0.01 | 33 | 17 | 2 | 0.5 | 4 | 0.3 | 0.2 | – | – | –
